Experimental data as given in patent US20130040853A1, “Context Specific Genetic Screen Platform to Aid in Gene Discovery and Target Validation” (Dana-Farber Cancer Institute Inc., priority 2010, published 2013).

System: HMEL-BRAF^V600E melanocytes
Assay: In vivo functional genetic screen and secondary validation: kinase-transduced HMEL cells implanted in nude mice
Set-up: species or system human
From the text: A ‘cancer-kinase’ library was constructed containing sequence-verified ORFs in a lentiviral vector for 110 of the 120 kinases reported to sustain somatic driver mutations in diverse human cancers. This library was pooled and introduced into a human HMEL-BRAF^V600E melanocyte model system engineered with BRAF^V600E and TERT as well as p53DD and CDK4-R24C to inactivate the […] pathways, respectively. The HMEL-BRAF^V600E melanocyte profile, while representing the most common clinically-definable genetic profile in human melanoma, is insufficient to drive efficient melanoma formation following orthotopic transplantation in the skin (penetrance of 10% and latency of 26 weeks). In contrast, 40% of HMEL-BRAF^V600E melanocytes transduced with the cancer kinase pools developed tumors with an average latency of 13 weeks (range 10-18 weeks).
In vivo functional genetic screens: Lentivirus were prepared by co-transfecting 293T cells with individual vector backbones and standard virus packaging systems for subsequent collection of viral supernatants. Viral supernatants were then pooled randomly to generate 8 pools of high-titer lentiviral stocks. HMEL cells were transduced with either GFP control lentivirus or each representative lentiviral pool in the presence of 8 ug/ml polybrene (Company). […]

In the case of “JNK2 WT: wild type MAPK9/JNK2 kinase ORF expressed in HMEL cells”, the Tumorigenicity in vivo (WT or mutant kinase expressed individually) is reported as “YES” and the tumor penetrance (secondary validation, kinase transduced individually into HMEL-BRAF^V600E melanocytes) is reported as 50%.
